Experimental findings from US20160331853A1, “COMPOSITIONS FOR RADIOTHERAPY AND USES THEREOF” (The Trustees of Columbia University in the City of New York, priority 2014, published 2016) are described below.

In data set [1] the test system is NCI-28H cells. The experiment in a line: Example 22: cytotoxicity (MTS) assay, NCI-28H cells treated with carboplatin, mitomycin, gemcitabine, talc alone, talc bound to each drug. Particulars: for Average absorbance reading: cells + drug, gemcitabine: 490 nm, Table 79; for Average absorbance reading: cells + drug, gemcitabine / % survival cells: cells + drug only / % survival from untreated cells: cells + drug, carboplatin / Average reading: cells + drug, carboplatin: NCI-28H cells; for % survival cells: cells + drug only: Table 80; for Average reading: cells + drug, carboplatin: absorbance 490 nm.

Data set [2] is described as follows: Example 2: Avidin and Avidin-Rhodamine binding to talc after PBS and 0.2% EDTA washes, fluorescent microscope. Particulars: 100 mg talc; 3x PBS, 3x 0.2% EDTA washes. The procedure:
The resulting mixtures were then washed with PBS and then washed with 0.2% EDTA.
3. Mix 1 mL of 100 μM of Avidin with 500 μL of 30.3 μM of Avidin Rhodamine (keep lights off).
4. […] Mix well to bring the dry talc powder to evenly distributed reaction solution.
8. Place tubes on the rotator and incubate overnight at 4° C.
5. Continue to wash all “b” labeled tubes with 0.2% EDTA. Wash 3× in 0.5 mL EDTA.
7. View slides under fluorescent microscope.

Data set [3] has as its system NCI-28H cells. Description: Example 21: cytotoxicity (MTS) assay, NCI-28H cells treated with doxorubicin, cisplatin, paclitaxel, talc alone, talc bound to each drug. Particulars: for Average reading: cells + cisplatin: absorbance 490 nm; for Average reading: cells + cisplatin / % survival from untreated cells (cells + cisplatin): NCI-28H cells; for AVERAGE reading: cells + DOX: NCI-28H, 72 hrs. Type of data set: cell-based.

Data set [4] in a line: Example 25: non-specific binding of Biotin-Rhodamine to talc after washing with buffers of different pH, fluorescent assay 496/520 nm. The procedure:
Plan: incubate talc with Biotin Rhodamine. Make washings using different pH buffers: PBS, TBS (pH 8.0), Citrate buffer (pH 4.8). Run fluorescent assay. 1. […] Label tubes as #1, #2, #3, #4. 2. Add to each tube 500 μL 1×PBS. 3. […] 4. Mix well, incubate all tubes for 1 hr at 4° C., rotator. Protect from light. 5. […] (Centrifuge speed −3200 rpm for 3 min) 7. Add to all tubes 200 μL PBS, mix well. 8. […] 9. Run fluorescent assay using settings excitation/emission as 496 nm/520 nm.

Data set [5] in a line: Example 1: binding of Anti-Avidin FITC and Biotin Rhodamine to talc, fluorescence microscopy. Particulars: 30 mg talc; FITC and Rhodamine filters. An excerpt: This combinant nanoparticle was observed under microscopy for efficiency and efficacy. 1. […] 4. […] 5. […] 3. […] 4. […] 7. […] PBS+0.05% Tween20). 9. Analyze under microscope using FITC filter and Rhodamine filter.

The nature of data set [6]: Example 9: binding of bleomycin to talc, fluorescent microscopy (DAPI filter). Particulars: 50 mg talc, 1 or 100 μg/mL bleomycin. The procedure:
1. Reconstitute bleomycin by adding 100 μL of water to 1 mg of bleomycin. Get the concentration to 10 mg/mL and mix, keeping the drug at 4° C.
9. Incubate overnight at 4° C., constantly mixing it.
3. Wash tubes 3× with 1 mL of water.
4. After last wash, complete, remove the water and resuspend the pellet in Vectashield mounting medium for fluorescence.
6. Check slides under fluorescent microscope under DAPI filter.

For data set [7] the following is noted: flow cytometry, after multiple PBS washes. Background: In flow cytometry, cells or beads pass a laser one at a time.
The subject of data set [8] is NCI-28H cells. Particulars: 72 hrs.

Several values for one entry are separate records, joined by “and”; a condition that tells them apart may be missing. Identical values can stand only once. Counter-ions that a name gives are not always drawn. Like-named read-outs stand apart in the source and are kept apart here.

For the compound `Nc1ccn([C@@H]2O[C@H](CO)[C@@H](O)C2(F)F)c(=O)n1` [gemcitabine, Gemcitabine, reference compound], in the data set with NCI-28H cells [1], the “cytotoxicity to NCI-28H cells, conclusion” value was “clear cytotoxic effect”. Moreover, the “Average absorbance reading: cells + drug, gemcitabine” value in the data set with NCI-28H cells [1] (Gemcitabine 0.0026 uM) is 2.034; in the data set on NCI-28H cells [1] (Gemcitabine 0.013 uM) it was 1.914; in the data set with NCI-28H cells [1] (Gemcitabine 0.064 uM) it was 1.43; in the data set on NCI-28H cells [1] (Gemcitabine 8 uM), 1.004; in the data set on NCI-28H cells [1] (Gemcitabine 40 uM), 1.0663; in the data set on NCI-28H cells [1] (Gemcitabine 200 uM) it was 0.9352. The “% survival cells: cells + drug only” value in the data set with NCI-28H cells [1] (Gemcitabine 0.0026 uM) amounted to 114.61%; in the data set with NCI-28H cells [1] (Gemcitabine 0.013 uM), 107.85%; in the data set on NCI-28H cells [1] (Gemcitabine 0.064 uM) it was 80.60%; in the data set on NCI-28H cells [1] (Gemcitabine 8 uM), 56.58%; with NCI-28H cells [1] (Gemcitabine 40 uM) it was 60.09%; in the data set on NCI-28H cells [1] (Gemcitabine 200 uM), 52.70%.
Regarding “Avidin-Rhodamine: Rhodamine Conjugated Avidin from Rockland [reference compound]”, in data set [2], the “binding to talc after washing” value is “remained bound to talc despite multiple washes”.
Consider `N.N.O=C([O-])C1(C(=O)[O-])CCC1.[Pt+2]` [carboplatin], for which the “% survival from untreated cells: cells + drug, carboplatin” value is 90.84% and 94.28% in the data set with NCI-28H cells [1] (carboplatin 0.006 μM); 85.98% and 87.53% with NCI-28H cells [1] (carboplatin 0.8 μM); 96.93% and 93.62% with NCI-28H cells [1] (carboplatin 4 μM); 104.81% and 99.20% in the data set with NCI-28H cells [1] (carboplatin 20 μM); 83.82% and 79.53% with NCI-28H cells [1] (carboplatin 100 μM); 37.38% and 35.14% with NCI-28H cells [1] (carboplatin 500 μM). For the same compound, the “Average reading: cells + drug, carboplatin” value with NCI-28H cells [1] (carboplatin 0.006 μM) was 1.504; in the data set with NCI-28H cells [1] (carboplatin 0.8 μM) it was 1.4238; in the data set with NCI-28H cells [1] (carboplatin 4 μM) it was 1.605; in the data set on NCI-28H cells [1] (carboplatin 20 μM), 1.7355; with NCI-28H cells [1] (carboplatin 100 μM) it was 1.388; with NCI-28H cells [1] (carboplatin 500 μM), 0.6189.
For the compound `N.N.[Cl][Pt][Cl]` [cisplatin, Cisplatin], the “Average reading: cells + cisplatin” value in the data set with NCI-28H cells [3] (Cisplatin 0.0013 μM) is given as 1.37; with NCI-28H cells [3] (Cisplatin 0.0064 μM), 1.19; with NCI-28H cells [3] (Cisplatin 0.8 μM), 1.23; in the data set on NCI-28H cells [3] (Cisplatin 4 μM) it was 1.18; in the data set with NCI-28H cells [3] (Cisplatin 20 μM), 0.48; in the data set on NCI-28H cells [3] (Cisplatin 100 μM), 0.59. In addition, the “% survival from untreated cells (cells + cisplatin)” value is on record as 91.07% in the data set on NCI-28H cells [3] (cisplatin 0.0013 (μM per Table 63)); 79.21% with NCI-28H cells [3] (cisplatin 0.0064 (μM per Table 63)); 76.66% with NCI-28H cells [3] (cisplatin 0.032 (μM per Table 63)); 79.74% with NCI-28H cells [3] (cisplatin 0.16 (μM per Table 63)); 82.09% with NCI-28H cells [3] (cisplatin 0.8 (μM per Table 63)); 78.41% with NCI-28H cells [3] (cisplatin 4 (μM per Table 63)). Besides, the “% survival from untreated cells (cells + cisplatin)” value in the data set on NCI-28H cells [3] (cisplatin 20 (μM per Table 63)) came to 31.99%; with NCI-28H cells [3] (cisplatin 100 (μM per Table 63)) it was 39.35%.
As for `COc1cccc2c1C(=O)c1c(O)c3c(c(O)c1C2=O)C[C@@](O)(C(=O)CO)C[C@@H]3O[C@H]1C[C@H](N)[C@H](O)[C@H](C)O1` [DOX, Doxorubicin Hydrochloride], the “AVERAGE reading: cells + DOX” value was found to be 0.89 with NCI-28H cells [3] (DOX 0.2 μM), 0.67 with NCI-28H cells [3] (DOX 1 μM) and 0.63 with NCI-28H cells [3] (DOX 5 μM).
Take Biotin Rhodamine 110: the “effect of pH of washing buffers on binding to talc” value in data set [4] (pH 4.8-8.0) is “pH does not affect the binding”. For the same compound, the “Average fluorescent signal (Rhodamine 110)” value is recorded as 14027.61 in data set [4] (talc/Biotin washed with Citrate buffer, pH 4.8); 13760.41 in data set [4] (talc/Biotin washed with PBS); 12868.68 in data set [4] (talc/Biotin washed with TBS, pH 8.0). In data set [5], the “binding to talc, microscopy” value is “binding to talc”.
As for Bleomycin sulfate, in data set [6], the “fluorescent imaging of talc incubated with bleomycin” value is “no difference in fluorescent imaging between negative control and talc incubated with bleomycin”. The “binding of bleomycin to talc” value in data set [7] was “binds to talc and remains on surface of talc even following multiple PBS washes”. Besides, the “% survival NCI-28H cells after treatment with BLEOMYCIN” value with NCI-28H cells [8] (Bleomycin 0.004 ug/ml) was 92.41%; in the data set on NCI-28H cells [8] (Bleomycin 0.015 ug/ml), 88.25%; in the data set with NCI-28H cells [8] (Bleomycin 0.06 ug/ml), 93.38%; in the data set on NCI-28H cells [8] (Bleomycin 0.24 ug/ml) it was 91.86%; in the data set with NCI-28H cells [8] (Bleomycin 0.97 ug/ml), 86.19%; in the data set with NCI-28H cells [8] (Bleomycin 3.9 ug/ml) it was 71.05%. The “% survival NCI-28H cells after treatment with BLEOMYCIN” value was 74.60% in the data set on NCI-28H cells [8] (Bleomycin 15.6 ug/ml), 68.76% in the data set with NCI-28H cells [8] (Bleomycin 62.5 ug/ml), 47.13% with NCI-28H cells [8] (Bleomycin 250 ug/ml) and 24.92% with NCI-28H cells [8] (Bleomycin 1000 ug/ml).
